US4804658A, “Imidazopyridine derivatives and pharmaceutical compositions” (G. D. Searle & Co., priority 1986, dated 1989)

System: PAF-induced primary aggregation
Assay: PAF-induced primary aggregation in human platelet-rich plasma
Assay type: cell-based
Conditions: indomethacin-treated PRP, test compound incubated two minutes at 37° C. before sub-optimal dose of PAF, read-out: IC50, inhibition of PAF-induced primary aggregation in human platelet-rich plasma
Protocol: PAF-Induced Primary Aggregation in Human Platelet-Rich Plasma
Human venous blood was collected from healthy male donors, who had denied any medication during the previous 14 days. Nine volumes of blood were mixed with one volume of 3.24% trisodium citrate. The citrated blood was centrifuged at 160 g for ten minutes at 22° C. to obtain platelet rich plasma (PRP). The platelets were then counted on a Coulter counter, and the platelet count was adjusted to 200,000 per μl with plasma. The PRP was then treated with indomethacin dissolved in dimethylsulfoxide (10 μg indomethacin per ml PRP). A stock solution of PAF (C16 or C18 β-acetyl-γ-O-alkyl-L-α-phosphatidylcholine; 1 mg/ml) was prepared as a solution in chloroform-methanol (9:1 v/v). A 10 μl portion of the stock solution was evaporated to dryness under nitrogen and dissolved in 0.15M sodium chloride-0.15M Tris.HCl (90:10 v/v) buffer containing 0.25% bovine albumin. Small volumes of the PAF solution (5-15 μl) were added to 0.5 ml samples of indomethacin-treated PRP and the aggregation trace was recorded using an aggregometer. A dose reponse curve was obtained and a sub-optimal dose of PAF was determined for use in inhibition studies.
Indomethacin-treated PRP (0.5 ml) was incubated with a test compound dissolved in buffer (ca. pH 5) or dimethylsulfoxide for two minutes at 37° C. prior to addition of the sub-optimal dose of PAF. The subsequent aggregation trace was recorded and the present inhibition of PAF primary aggregation was determined by comparison with a control PAF-induced aggregation trace. (Due to variability in PAF-induced aggregation within a given PRP sample, a control PAF-induced aggregation was determined every two or three samples.) An inhibition dose-response curve was determined for each test compound and the IC50 value calculated. Table I lists IC50 's for illustrative examples of the compounds of this invention.

IC50	Structure (SMILES)
49.5 µM	O=C(c1ccc(Cn2cnc3cnccc32)cc1)N1CCOCC1 [Example 3, [4-(1H-imidazo[4,5-c]pyridin-1-ylmethyl)phenyl](4-morpholinyl)methanone]
215 µM	O=C(c1ccc(Cn2cnc3ccncc32)cc1)N1CCOCC1 [Example 4, [4-(3H-imidazo[4,5-c]pyridin-3-ylmethyl)phenyl](4-morpholinyl)methanone]
140 µM	CCOC(=O)CCCn1cnc2ccncc21 [6(A), Ethyl 4-(3H-imidazo[4,5-c]pyridin-3-yl)butanoate]
87 µM	O=C(c1ccc(Cn2cnc3ncccc32)cc1)N1CCOCC1 [Example 15, [4-(1H-Imidazo[4,5-b]pyridin-1-ylmethyl)phenyl](4-morpholinyl)methanone]
20.5 µM	CCOC(=O)CCCCCn1cnc2cnccc21 [8(B), Ethyl 6-(1H-imidazo[4,5-c]pyridin-1-yl)hexanoate]
5 µM	CN(C(=O)c1ccc(Cn2cnc3cnccc32)cc1)C1CCCCC1 [Example 5, N-Cyclohexyl-N-methyl-4-(1H-imidazo[4,5-c]pyridin-1-yl-methyl)benzamide]
136 µM	CCOC(=O)c1ccc(Cn2cnc3ccncc32)cc1 [1(A), Ethyl 4-(3H-imidazo[4,5-c]pyridin-3-ylmethyl)benzoate]
500 µM	CCOC(=O)CCCCn1cnc2ccncc21 [7(A), Ethyl 5-(3H-imidazo[4,5-c]pyridin-3-yl)pentanoate]
43.5 µM	CCOC(=O)C(C)(C)CCCCn1cnc2ccncc21 [10(A), Ethyl 2,2-dimethyl-6-(3H-imidazo[4,5-c]pyridin-3-yl)hexanoate]
33 µM	c1cc2c(cn1)ncn2CCCCCc1nnnn1C1CCCCC1 [Example 13, 1-[5-(1-Cyclohexyl-1H-tetrazol-5-yl)pentyl]-1H-imidazo[4,5-c]pyridine]
8 µM	c1cc2c(cn1)ncn2CCCCc1nnnn1C1CCCCC1 [12(B), 1-[4-(1-Cyclohexyl-1H-tetrazol-5-yl)butyl]-1H-imidazo[4,5-c]pyridine]
80 µM	CCOC(=O)c1cccc(Cn2cnc3cnccc32)c1 [2(B), Ethyl 3-(1H-imidazo[4,5-c]pyridin-1-ylmethyl)benzoate]
46 µM	CCOC(=O)c1ccc(Cn2cnc3cnccc32)cc1 [1(B), Ethyl 4-(1H-imidazo[4,5-c]pyridin-1-ylmethyl)benzoate]
48 µM	CCOC(=O)CCCCCCn1cnc2ccncc21 [9(A), Ethyl 7-(3H-imidazo[4,5-c]pyridin-3-yl)heptanoate]
102 µM	CCOC(=O)CCCCCn1cnc2ccncc21 [8(A), Ethyl 6-(3H-imidazo[4,5-c]pyridin-3-yl)hexanoate]
29 µM	CCOC(=O)c1ccc(Cn2cnc3ncccc32)cc1 [14(B), Ethyl 4-(1H-imidazo[4,5-b]pyridin-1-ylmethyl)benzoate]
165 µM	CCOC(=O)c1cccc(Cn2cnc3ccncc32)c1 [2(A), Ethyl 3-(3H-imidazo[4,5-c]pyridin-3-ylmethyl)benzoate]
56 µM	c1cc2ncn(CCCCc3nnnn3C3CCCCC3)c2cn1 [12(A), 3-[4-(1-Cyclohexyl-1H-tetrazol-5-yl)butyl]-3H-imidazo[4,5-c]pyridine]
118 µM	c1cnc2c(c1)ncn2CCCCc1nnnn1C1CCCCC1 [16(A), 3-[4-(1-Cyclohexyl-1H-tetrazol-5-yl)butyl]-3H-imidazo[4,5-b]pyridine]
185 µM	CCOC(=O)CCCCn1cnc2cnccc21 [7(B), Ethyl 5-(1H-imidazo[4,5-c]pyridin-1-yl)pentanoate]
58 µM	CCOC(=O)c1ccc(Cn2cnc3cccnc32)cc1 [14(A), Ethyl 4-(3H-imidazo[4,5-b]pyridin-3-ylmethyl)benzoate]
20 µM	CCOC(=O)CCCCCCn1cnc2cnccc21 [9(B), Ethyl 7-(1H-imidazo[4,5-c]pyridin-1-yl)heptanoate]
15 µM	CCOC(=O)C(C)(C)CCCCn1cnc2cnccc21 [10(B), Ethyl 2,2-dimethyl-6-(1H-imidazo[4,5-c]pyridin-1-yl)hexanoate]
112 µM	c1cnc2ncn(CCCCc3nnnn3C3CCCCC3)c2c1 [16(B), 1-[4-(1-Cyclohexyl-1H-tetrazol-5-yl)butyl]-1H-imidazo[4,5-b]pyridine]
500 µM	CN(C(=O)CCCCCCn1cnc2ccncc21)C1CCCCC1 [11(A), N-Cyclohexyl-N-Methyl-7-(3H-imidazo[4,5-c]pyridin-3-yl)heptanamide]
